Test results taken from PubChem BioAssay (NCI).
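Values below derive from 48-hour exposures of cells grown in 96-well plates, with endpoints linearly interpolated between the two concentrations bracketing the appropriate inhibition level. TGI: total growth inhibition.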

Key:
Assay in all cases: NCI anticancer screen, dose series, 48 h
NCI-H460 lung = test system: NCI-H460 lung
HOP-92 NSCLC = test system: HOP-92 NSCLC
OVCAR-4 ovarian = test system: OVCAR-4 ovarian
PC-3 prostate = test system: PC-3 prostate
NCI-H23 lung = test system: NCI-H23 lung
UO-31 renal = test system: UO-31 renal
SF-268 CNS = test system: SF-268 CNS
ACHN renal = test system: ACHN renal
SN12C renal = test system: SN12C renal
SW-620 colon = test system: SW-620 colon
OVCAR-3 ovarian = test system: OVCAR-3 ovarian
HCT-116 colon = test system: HCT-116 colon
SNB-19 CNS = test system: SNB-19 CNS
OVCAR-5 ovarian = test system: OVCAR-5 ovarian
U251 CNS = test system: U251 CNS
LOX IMVI melanoma = test system: LOX IMVI melanoma
UACC-62 melanoma = test system: UACC-62 melanoma
HT29 colon = test system: HT29 colon
IGROV1 ovarian = test system: IGROV1 ovarian
HCC-2998 colon = test system: HCC-2998 colon
TK-10 renal = test system: TK-10 renal
NCI/ADR-RES ovarian = test system: NCI/ADR-RES ovarian
T-47D breast = test system: T-47D breast
NCI-H522 lung = test system: NCI-H522 lung
COLO 205 colon = test system: COLO 205 colon
A549 NSCLC = test system: A549 NSCLC
UACC-257 melanoma = test system: UACC-257 melanoma
MALME-3M melanoma = test system: MALME-3M melanoma
HS 578T breast = test system: HS 578T breast
HOP-62 NSCLC = test system: HOP-62 NSCLC
HCT-15 colon = test system: HCT-15 colon
SK-MEL-5 melanoma = test system: SK-MEL-5 melanoma
OVCAR-8 ovarian = test system: OVCAR-8 ovarian
MDA-MB-231 breast = test system: MDA-MB-231 breast
786-0 renal = test system: 786-0 renal
K-562 leukemia = test system: K-562 leukemia
SR leukemia = test system: SR leukemia
NCI-H226 lung = test system: NCI-H226 lung
SK-MEL-28 melanoma = test system: SK-MEL-28 melanoma
MDA-MB-435 = test system: MDA-MB-435
MDA-N = test system: MDA-N
KM12 colon = test system: KM12 colon
DU-145 prostate = test system: DU-145 prostate
SNB-75 CNS = test system: SNB-75 CNS
M14 melanoma = test system: M14 melanoma
CAKI-1 renal = test system: CAKI-1 renal
SK-MEL-2 melanoma = test system: SK-MEL-2 melanoma
RPMI-8226 leukemia = test system: RPMI-8226 leukemia
A498 renal = test system: A498 renal
BT-549 breast = test system: BT-549 breast
SK-OV-3 ovarian = test system: SK-OV-3 ovarian
HL-60(TB) leukemia = test system: HL-60(TB) leukemia
SF-295 CNS = test system: SF-295 CNS
CCRF-CEM leukemia = test system: CCRF-CEM leukemia
EKVX NSCLC = test system: EKVX NSCLC
RXF 393 renal = test system: RXF 393 renal
SF-539 CNS = test system: SF-539 CNS
MCF7 breast = test system: MCF7 breast
MOLT-4 leukemia = test system: MOLT-4 leukemia

Compound: N#Cc1c(N)nc(-c2ccc(Cl)cc2)c2c1-c1ccccc1S(=O)(=O)CC2
- TGI (NCI-H460 lung): > 100 µM
- TGI (HOP-92 NSCLC): > 100 µM
- TGI (OVCAR-4 ovarian): > 100 µM
- TGI (PC-3 prostate): > 100 µM
- TGI (NCI-H23 lung): > 100 µM
- TGI (UO-31 renal): > 100 µM
- TGI (SF-268 CNS): > 100 µM
- TGI (ACHN renal): > 100 µM
- TGI (SN12C renal): > 100 µM
- TGI (SW-620 colon): > 100 µM
- TGI (OVCAR-3 ovarian): > 100 µM
- TGI (HCT-116 colon): > 100 µM
- TGI (SNB-19 CNS): 93.9 µM
- TGI (OVCAR-5 ovarian): > 100 µM
- TGI (U251 CNS): > 100 µM
- TGI (LOX IMVI melanoma): > 100 µM
- TGI (UACC-62 melanoma): > 100 µM
- TGI (HT29 colon): > 100 µM
- TGI (IGROV1 ovarian): > 100 µM
- TGI (HCC-2998 colon): > 100 µM
- TGI (TK-10 renal): > 100 µM
- TGI (NCI/ADR-RES ovarian): > 100 µM
- TGI (T-47D breast): > 100 µM
- TGI (NCI-H522 lung): > 100 µM
- TGI (COLO 205 colon): > 100 µM
- TGI (A549 NSCLC): > 100 µM
- TGI (UACC-257 melanoma): > 100 µM
- TGI (MALME-3M melanoma): > 100 µM
- TGI (HS 578T breast): > 100 µM
- TGI (HOP-62 NSCLC): > 100 µM
- TGI (HCT-15 colon): > 100 µM
- TGI (SK-MEL-5 melanoma): > 100 µM
- TGI (OVCAR-8 ovarian): > 100 µM
- TGI (MDA-MB-231 breast): > 100 µM
- TGI (786-0 renal): > 100 µM
- TGI (K-562 leukemia): > 100 µM
- TGI (SR leukemia): > 100 µM
- TGI (NCI-H226 lung): > 100 µM
- TGI (SK-MEL-28 melanoma): > 100 µM
- TGI (MDA-MB-435): > 100 µM
- TGI (MDA-N): > 100 µM
- TGI (KM12 colon): > 100 µM
- TGI (DU-145 prostate): > 100 µM
- TGI (SNB-75 CNS): > 100 µM
- TGI (M14 melanoma): > 100 µM
- TGI (CAKI-1 renal): > 100 µM
- TGI (SK-MEL-2 melanoma): > 100 µM
- TGI (RPMI-8226 leukemia): > 100 µM
- TGI (A498 renal): > 100 µM
- TGI (BT-549 breast): > 100 µM

Compound: CC(C)=CCC/C(C)=C/CC/C(C)=C/CC/C(C)=C/C=C/C=C(\C)CC/C=C(\C)CC/C=C(\C)CCC=C(C)C
- TGI (NCI-H460 lung): > 58.4 µM
- TGI (HOP-92 NSCLC): > 75.5 µM
- TGI (OVCAR-4 ovarian): > 100 µM
- TGI (PC-3 prostate): > 100 µM
- TGI (NCI-H23 lung): > 100 µM
- TGI (SK-OV-3 ovarian): > 100 µM
- TGI (UO-31 renal): 54.8 µM
- TGI (SF-268 CNS): > 81.4 µM
- TGI (ACHN renal): 53 µM
- TGI (SN12C renal): > 55.3 µM
- TGI (SW-620 colon): > 100 µM
- TGI (OVCAR-3 ovarian): > 100 µM
- TGI (HCT-116 colon): > 100 µM
- TGI (SNB-19 CNS): > 100 µM
- TGI (OVCAR-5 ovarian): > 100 µM
- TGI (U251 CNS): > 100 µM
- TGI (LOX IMVI melanoma): 49.9 µM
- TGI (UACC-62 melanoma): > 100 µM
- TGI (HL-60(TB) leukemia): 4.96 µM
- TGI (HT29 colon): > 100 µM
- TGI (IGROV1 ovarian): 36.4 µM
- TGI (HCC-2998 colon): > 100 µM
- TGI (SF-295 CNS): > 100 µM
- TGI (TK-10 renal): > 74.3 µM
- TGI (NCI/ADR-RES ovarian): > 82.9 µM
- TGI (T-47D breast): > 100 µM
- TGI (NCI-H522 lung): 31.4 µM
- TGI (COLO 205 colon): > 100 µM
- TGI (A549 NSCLC): > 100 µM
- TGI (UACC-257 melanoma): > 100 µM
- TGI (MALME-3M melanoma): > 100 µM
- TGI (CCRF-CEM leukemia): 59.8 µM
- TGI (HS 578T breast): > 100 µM
- TGI (EKVX NSCLC): > 93.3 µM
- TGI (HOP-62 NSCLC): > 100 µM
- TGI (HCT-15 colon): > 100 µM
- TGI (SK-MEL-5 melanoma): > 79.9 µM
- TGI (OVCAR-8 ovarian): > 88.2 µM
- TGI (RXF 393 renal): > 100 µM
- TGI (MDA-MB-231 breast): > 100 µM
- TGI (786-0 renal): 52.3 µM
- TGI (K-562 leukemia): > 31.6 µM
- TGI (SF-539 CNS): > 100 µM
- TGI (NCI-H226 lung): > 100 µM
- TGI (SK-MEL-28 melanoma): > 100 µM
- TGI (MDA-MB-435): > 100 µM
- TGI (MDA-N): > 100 µM
- TGI (KM12 colon): 63.3 µM
- TGI (DU-145 prostate): > 100 µM
- TGI (SNB-75 CNS): > 100 µM
- TGI (M14 melanoma): > 100 µM
- TGI (CAKI-1 renal): 32.1 µM
- TGI (MCF7 breast): > 100 µM
- TGI (SK-MEL-2 melanoma): > 100 µM
- TGI (RPMI-8226 leukemia): > 100 µM
- TGI (A498 renal): > 100 µM
- TGI (MOLT-4 leukemia): 49 µM
- TGI (BT-549 breast): > 100 µM
